Experiments:
primary AML marrow cells = assay: Growth/viability of primary AML marrow cells; assay type: cell-based, human
Description: AML patient samples were acquired following informed consent and under the direction of IRB approved protocols.

MDSL cells [1] = assay: MDSL xenograft, cells pre-treated in vitro, NSGS mice; assay type: in vivo
Method: (§1) Xenograftment of NOD/SCID-IL2Rγ(NSG) and NSG-hSCF/hGM-CSF/hIL3 (NSGS) MDSL cells (1×10^6-5×10^6) were injected into the tail veins of 8-week old sublethally irradiated ([…]) NSG or NSG animals engineered to express human SCF, GM-CSF, and IL3 (NSGS) as previously described (Wunderlich et al., 2010). Mice were monitored by performing complete blood counts (Drew Hemavet 950FS). Following red cell lysis, human MDSL cells were identified by hCD45-FITC staining. In vivo delivery of IRAK-Inh approach is adapted from previous reports (Yang et al., 2011): IRAK-Inh was diluted in DMSO (5 mM) and further dissolved in sterile phosphate buffered saline (PBS; pH 7.2). Animals were injected i.p. with 2.12 mg/kg IRAK-Inh 3× weekly.
(§2) To determine whether IRAK-Inh can delay human MDS-like disease in vivo, MDSL were pre-treated with IRAK-Inh (10 μM) for 24 hrs in vitro and subsequently injected intravenously (i.v.) into NSG (5×10^6 cells) and NSGS (1×10^6 cells) recipient mice (FIG. 4A). This approach permitted us to evaluate the cell autonomous effect of IRAK-Inh on MDS cell viability and engraftment without altering endogenous IRAK1 function in the mouse.
Moreover, we investigated whether combined IRAK1 and BCL2 inhibition could delay human MDS-like disease in vivo. MDSL cells were treated with IRAK-Inh (10 μM) and/or ABT-263 (0.1 μM) for 48 hrs in vitro and subsequently injected i.v. into NSGS mice (FIG. 4A).

Lck = Lck (Homo sapiens, UniProt P06239); conditions: read-out: IC50 Lck; Powers et al., 2006; cited from earlier work
IRAK4 = IRAK4 (Homo sapiens, UniProt Q9NWZ3); conditions: read-out: IC50 IRAK4; Powers et al., 2006; cited from earlier work
AML patient cells = assay: Colony formation in methylcellulose, primary AML cells; assay type: cell-based, human
Description: (§4) We evaluated marrow cells from 7 MDS and 3 AML patient samples with various cytogenetic features to determine whether IRAK1 inhibition is also effective in primary patient cells (Table S1). […] Since MDS and AML stem/progenitor cells are clonal and the disease-propagating cells form colonies in methylcellulose, we also evaluated the effects of IRAK-Inh on colony formation.

pp60^Src = pp60^Src (Homo sapiens, UniProt P12931); conditions: read-out: IC50 pp60Src; Powers et al., 2006; cited from earlier work
MDSL cells [2] = assay: MDSL xenograft, cells pre-treated in vitro, NSG mice; assay type: in vivo
Method: as §1, §2

NF-κB (RelA/p65) = conditions: MDS/AML cell lines (THP1, HL60), 10 μM, 24 hrs
Method: (§3) Annexin V analysis was carried out as previously described (Fang et al., 2012). Cells were stained after either drug treatment or lentiviral transduction with Annexin V (eBioscience) and propidium iodide (Sigma-Aldrich), or 7AAD (eBioscience) according to the manufacturer's instructions. Analysis was performed using BD FACSCalibur or FACSCanto flow cytometer with either CellQuest or Diva software. For in vitro growth assays, cell expansion in liquid culture was determined based on trypan blue exclusion using an automated cell counter (BioRad TC10). For experiments beyond 48 hrs, cells were replenished with fresh media and drug every second day. For primary patient marrow cells, cell were treated with a single inhibitor dose and counted 24 and 48 hours later. NF-κB DNA-binding assay Nuclear lysates were isolated from treated cells as previously described (Starczynowski et al., 2011). NF-κB (p65) DNA binding was measured using an ELISA-based assay according to the manufacturer's recommendations (KHO0371, Invitrogen)

MDS patient marrow cells [3] = conditions: 48 hrs
Method: as §3

[4] = tested on: MDS/AML cell lines (MDSL, TF1, THP1, HL60); assay: Viable cell growth (trypan blue exclusion) of MDS/AML cell lines; assay type: cell-based, human
Method: Acute myeloid leukemic cell lines, HL60, THP1, and TF-1 were purchased from the American Type Culture Collection. MOLM13 were purchased from AddexBio. The myelodysplastic cell line, MDS-L, was provided by Dr. Kaoru Tohyama (Kawasaki Medical School, Okayama, Japan) (Matsuoka et al., 2010). […] Additionally, both the MDSL and TF-1 cell lines were cultured in the presence of 10 ng/mL human recombinant IL-3 (Stemcell Technologies).

MDSL cells [5] = assay: Cell cycle analysis by BrdU/7AAD; assay type: cell-based, human; conditions: 10 μM, up to 6 days
Method: MDS/AML cell lines with hyperphosphorylated IRAK1 (FIG. 1D) were evaluated for sensitivity to IRAK-Inh. MDS/AML cell lines exposed to increasing concentration of IRAK-Inh were cultured for up to 6 days in vitro (FIG. 3A). […] In support of this observation, the inhibitory effect of IRAK-Inh on the cell lines correlated with the level of phosphorylated IRAK1 (R2=0.36; FIG. 3B). In parallel, cell viability was examined after 48 hrs of treatment with the IRAK-Inh. […] To investigate whether IRAK-Inh affects cell cycle progression, MDSL cells were treated with 10 μM IRAK-Inh for up to 6 days and evaluated by BrdU/7AAD staining (FIG. 3D).

MDS patient marrow cells [6] = assay: Colony formation in methylcellulose, primary MDS marrow cells; conditions: continuously treated or briefly exposed
Description: as §4

Chain of IRAK4 (Q9NWZ3 whole entry, species assumed): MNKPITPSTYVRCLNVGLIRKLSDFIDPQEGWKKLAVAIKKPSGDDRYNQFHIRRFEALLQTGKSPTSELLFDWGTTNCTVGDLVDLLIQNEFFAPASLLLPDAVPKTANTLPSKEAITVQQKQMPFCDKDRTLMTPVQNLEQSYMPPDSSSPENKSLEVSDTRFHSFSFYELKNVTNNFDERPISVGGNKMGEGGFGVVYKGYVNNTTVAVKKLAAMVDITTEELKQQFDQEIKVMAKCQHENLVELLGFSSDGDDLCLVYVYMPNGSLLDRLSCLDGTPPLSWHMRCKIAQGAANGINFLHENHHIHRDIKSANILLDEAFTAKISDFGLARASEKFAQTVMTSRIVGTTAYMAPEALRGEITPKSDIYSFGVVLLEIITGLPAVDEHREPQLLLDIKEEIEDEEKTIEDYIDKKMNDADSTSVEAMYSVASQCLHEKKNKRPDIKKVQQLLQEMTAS
Chain of pp60^Src (P12931 whole entry): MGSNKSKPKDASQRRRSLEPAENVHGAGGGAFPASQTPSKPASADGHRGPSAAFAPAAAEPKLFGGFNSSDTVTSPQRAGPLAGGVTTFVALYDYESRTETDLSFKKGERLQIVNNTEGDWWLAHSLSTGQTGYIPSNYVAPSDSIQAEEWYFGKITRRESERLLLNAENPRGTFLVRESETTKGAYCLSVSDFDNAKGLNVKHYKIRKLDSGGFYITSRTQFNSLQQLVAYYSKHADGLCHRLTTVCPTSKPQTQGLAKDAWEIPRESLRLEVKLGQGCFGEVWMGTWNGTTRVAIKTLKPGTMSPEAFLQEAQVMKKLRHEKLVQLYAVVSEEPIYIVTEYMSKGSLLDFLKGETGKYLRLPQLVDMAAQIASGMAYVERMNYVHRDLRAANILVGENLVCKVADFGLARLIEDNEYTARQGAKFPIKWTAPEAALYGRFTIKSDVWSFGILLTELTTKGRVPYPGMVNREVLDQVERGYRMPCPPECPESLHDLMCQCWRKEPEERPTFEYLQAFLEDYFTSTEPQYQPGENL
Chain of Lck (P06239 whole entry, species assumed): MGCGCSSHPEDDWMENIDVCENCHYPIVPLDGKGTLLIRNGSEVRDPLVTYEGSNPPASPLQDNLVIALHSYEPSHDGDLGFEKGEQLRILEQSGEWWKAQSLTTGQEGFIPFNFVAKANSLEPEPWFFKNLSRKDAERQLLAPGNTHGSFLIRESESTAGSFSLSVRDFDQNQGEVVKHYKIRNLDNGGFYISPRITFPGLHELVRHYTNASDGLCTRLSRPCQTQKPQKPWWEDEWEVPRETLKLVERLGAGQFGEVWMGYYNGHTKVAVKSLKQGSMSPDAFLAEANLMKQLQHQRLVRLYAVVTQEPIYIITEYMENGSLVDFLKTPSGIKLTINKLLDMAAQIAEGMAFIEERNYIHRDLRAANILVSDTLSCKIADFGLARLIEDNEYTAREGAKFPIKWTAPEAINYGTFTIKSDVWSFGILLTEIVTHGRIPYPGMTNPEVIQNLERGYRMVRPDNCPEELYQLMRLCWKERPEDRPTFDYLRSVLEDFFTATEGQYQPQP

## O=C(Nc1nc2ccccc2n1CCN1CCOCC1)c1cccc([N+](=O)[O-])c1 [IRAK-Inh, N-(2-morpholinylethyl)-2-(3-nitrobenzoylamido)-benzimidazole]
Primary AML marrow cells
  growth of AML marrow cells: continued to grow similar to control-treated cells
  viability of primary AML marrow cells: only modestly reduced
MDSL cells [1]; MDSL pre-treated 10 μM 24 hrs, 1×10^6 cells i.v., control 29 days
  median survival: 38 days
MDSL cells [1]; MDSL treated in vitro with IRAK-Inh 10 μM and/or ABT-263 0.1 μM, DMSO 28 days
  median survival: ~35 days
MDSL cells [1]; mice transplanted with pre-treated MDSL cells
  red blood cell numbers, hemoglobin, hematocrit and platelets: significantly improved
Lck
  IC50: > 10 µM
IRAK4
  IC50: 0.2 µM
AML patient cells
  AML progenitor function: did not affect
AML patient cells; IRAK-Inh 10 μM, ABT-263 0.1 μM
  leukemic progenitor function of AML patient cells: not sensitive
pp60^Src
  IC50: > 10 µM
MDSL cells [2]; MDSL pre-treated 10 μM 24 hrs, 5×10^6 cells i.v., control 68 days
  median survival: 80 days
MDSL cells [2]; peripheral blood, 28 days post-transplant, control 8%
  human MDSL graft: 2%
NF-κB (RelA/p65)
  DNA bound and active RelA/p65 decreased by: ~50%
MDS patient marrow cells [3]
  expansion of MDS marrow cells: failed to expand
MDS patient marrow cells [3]; except for MDS-07
  apoptotic cells in MDS marrow cells: increased levels of apoptotic cells
[4]; HL60
  viability of HL60 cells: only modestly reduced
[4]; HL60, IRAK-Inh 10 μM, ABT-263 0.1 μM, alone or combined
  sensitivity of HL60 cells: refractory
[4]; IRAK-Inh 10 μM, ABT-263 0.1 μM, alone or co-treatment
  MDS/AML cell line growth and survival: modest effects
[4]; MDSL, TF1 and THP1, 0-10 μM, up to 6 days
  cell proliferation: dose-dependent impairment
MDSL cells [5]
  proportion in G0/G1: 62.7%±1.1
  proportion of sub-G0 cells: 5.4%±0.3
  viable cells in S phase: 4.3%±0.4
MDS patient marrow cells [6]
  colony formation of MDS marrow cells: significantly fewer colonies

Source: patent US9855273B2, “Combination therapy for MDS” (priority 2013, dated 2018)
